Measured values reported in patent US9499492B2, “4-(ortho)-fluorophenyl-5-fluoropyrimidin-2-yl amines containing a sulfoximine group” (BAYER PHARMA AKTIENGESELLSCHAFT, priority 2012, dated 2016).
Read-outs that look alike come from different tables or passages of the source.

What was measured:
[1] = target: CDK2/CycE (Homo sapiens (Human), UniProt P24941); test: CDK2/CycE kinase assay (Method 2); type: biochemical; conditions: 10 μM ATP
From the text: 2. CDK2/CycE Kinase Assay:
CDK2/CycE-inhibitory activity of compounds of the present invention was quantified employing the CDK2/CycE TR-FRET assay as described in the following paragraphs:
Recombinant fusion proteins of GST and human CDK2 and of GST and human CycE, expressed in insect cells (Sf9) and purified by Glutathion-Sepharose affinity chromatography, were purchased from ProQinase GmbH (Freiburg, Germany). As substrate for the kinase reaction biotinylated peptide biotin-Ttds-[…] (C-terminus in amid form) was used which can be purchased e.g. form the company JERINI Peptide Technologies (Berlin, Germany).
(§1) For the assay 50 nl of a 100 fold concentrated solution of the test compound in DMSO was pipetted into a black low volume 384 well microtiter plate (Greiner Bio-One, Frickenhausen, Germany), 2 μl of a solution of CDK2/CycE in aqueous assay buffer [50 mM Tris/HCl pH 8.0, 10 mM MgCl2, 1.0 mM dithiothreitol, 0.1 mM sodium ortho-vanadate, 0.01% (v/v) Nonidet-P40 (Sigma)] were added and the mixture was incubated for 15 min at 22° C. to allow pre-binding of the test compounds to the enzyme before the start of the kinase reaction. […] The concentration of CDK2/CycE was adjusted depending of the activity of the enzyme lot and was chosen appropriate to have the assay in the linear range, typical concentrations were in the range of 130 ng/ml.
(§2) The resulting mixture was incubated 1 h at 22° C. to allow the formation of complex between the phosphorylated biotinylated peptide and the detection reagents. Subsequently the amount of phosphorylated substrate was evaluated by measurement of the resonance energy transfer from the Eu-chelate to the streptavidine-XL. Therefore, the fluorescence emissions at 620 nm and 665 nm after excitation at 350 nm was measured in a TR-FRET reader, e.g. a Rubystar (BMG Labtechnologies, Offenburg, Germany) or a Viewlux (Perkin-Elmer). The ratio of the emissions at 665 nm and at 622 nm was taken as the measure for the amount of phosphorylated substrate.

[2] = system: HeLa, human cervical tumour cells; test: Proliferation assay, HeLa (Method 3); type: cell-based; conditions: 4 days, crystal violet, read-out: Inhibition of HeLa cell proliferation IC50
Description: (§3) After 24 hours, the cells of one plate (zero-point plate) were stained with crystal violet (see below), while the medium of the other plates was replaced by fresh culture medium (200 μl), to which the test substances were added in various concentrations (0 μM, as well as in the range of 0.001-10 μM; the final concentration of the solvent dimethyl sulfoxide was 0.5%). The cells were incubated for 4 days in the presence of test substances. Cell proliferation was determined by staining the cells with crystal violet: the cells were fixed by adding 20 μl/measuring point of an 11% glutaric aldehyde solution for 15 minutes at room temperature. After three washing cycles of the fixed cells with water, the plates were dried at room temperature. The cells were stained by adding 100 μl/measuring point of a 0.1% crystal violet solution (pH 3.0). After three washing cycles of the stained cells with water, the plates were dried at room temperature. The dye was dissolved by adding 100 μl/measuring point of a 10% acetic acid solution. The extinction was determined by photometry at a wavelength of 595 nm. The change of cell number, in percent, was calculated by normalization of the measured values to the extinction values of the zero-point plate (=0%) and the extinction of the untreated (0 μm) cells (=100%).

[3] = system: A2780, human ovarian carcinoma cells; test: Proliferation assay, A2780 (Method 3); type: cell-based; conditions: A2780, 4 days, crystal violet, read-out: Inhibition of A2780 cell proliferation IC50
Description: as §3

[4] = target: T1, CDK9/CycT1 (Homo sapiens (Human), UniProt P50750); test: CDK9/CycT1 high ATP kinase assay (Method 1b); type: biochemical; conditions: 2 mM ATP
Description: 1b. CDK9/CycT1 High ATP Kinase Assay
CDK9/CycT1-inhibitory activity of compounds of the present invention at a high ATP concentration after preincubation of enzyme and test compounds was quantified employing the CDK9/CycT1 TR-FRET assay as described in the following paragraphs.
(§4) Recombinant full-length His-tagged human CDK9 and CycT1, expressed in insect cells and purified by Ni-NTA affinity chromatography, were purchase from Invitrogen (Cat. No PV4131). As substrate for the kinase reaction biotinylated peptide biotin-Ttds-[…] (C-terminus in amid form) was used which can be purchased e.g. form the company JERINI peptide technologies (Berlin, Germany).
as §1, with “CDK9/CycT1” for “CDK2/CycE”, “0.5 μg/ml.” for “130 ng/ml.”
as §2, with “HTRF” for “TR-FRET”

[5] = target: T1, CDK9/CycT1; test: CDK9/CycT1 kinase assay (Method 1a); type: biochemical; conditions: for IC50: 10 μM ATP; for Selectivity CDK9/CDK2: derived from Methods 1a. and 2.
From the text: 1a. CDK9/CycT1 Kinase Assay:
CDK9/CycT1-inhibitory activity of compounds of the present invention was quantified employing the CDK9/CycT1 TR-FRET assay as described in the following paragraphs:
as §4, with “were purchased” for “were purchase”, “JERINI Peptide Technologies” for “JERINI peptide technologies”
as §1, with “CDK9/CycT1” for “CDK2/CycE”, “1 μg/ml.” for “130 ng/ml.”
as §2, with “HTRF” for “TR-FRET”

T1 sequence (P50750 whole entry): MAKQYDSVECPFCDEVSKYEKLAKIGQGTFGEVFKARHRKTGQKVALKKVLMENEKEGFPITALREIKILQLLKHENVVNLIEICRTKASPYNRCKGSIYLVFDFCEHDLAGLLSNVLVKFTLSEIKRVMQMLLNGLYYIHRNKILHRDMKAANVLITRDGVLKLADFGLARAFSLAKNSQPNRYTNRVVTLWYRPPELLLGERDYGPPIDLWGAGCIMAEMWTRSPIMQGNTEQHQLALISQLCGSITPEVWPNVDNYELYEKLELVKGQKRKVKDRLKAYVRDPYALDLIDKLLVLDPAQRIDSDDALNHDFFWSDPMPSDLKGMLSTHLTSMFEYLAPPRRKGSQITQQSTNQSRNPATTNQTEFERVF
T1 sequence (O60563 whole entry partner): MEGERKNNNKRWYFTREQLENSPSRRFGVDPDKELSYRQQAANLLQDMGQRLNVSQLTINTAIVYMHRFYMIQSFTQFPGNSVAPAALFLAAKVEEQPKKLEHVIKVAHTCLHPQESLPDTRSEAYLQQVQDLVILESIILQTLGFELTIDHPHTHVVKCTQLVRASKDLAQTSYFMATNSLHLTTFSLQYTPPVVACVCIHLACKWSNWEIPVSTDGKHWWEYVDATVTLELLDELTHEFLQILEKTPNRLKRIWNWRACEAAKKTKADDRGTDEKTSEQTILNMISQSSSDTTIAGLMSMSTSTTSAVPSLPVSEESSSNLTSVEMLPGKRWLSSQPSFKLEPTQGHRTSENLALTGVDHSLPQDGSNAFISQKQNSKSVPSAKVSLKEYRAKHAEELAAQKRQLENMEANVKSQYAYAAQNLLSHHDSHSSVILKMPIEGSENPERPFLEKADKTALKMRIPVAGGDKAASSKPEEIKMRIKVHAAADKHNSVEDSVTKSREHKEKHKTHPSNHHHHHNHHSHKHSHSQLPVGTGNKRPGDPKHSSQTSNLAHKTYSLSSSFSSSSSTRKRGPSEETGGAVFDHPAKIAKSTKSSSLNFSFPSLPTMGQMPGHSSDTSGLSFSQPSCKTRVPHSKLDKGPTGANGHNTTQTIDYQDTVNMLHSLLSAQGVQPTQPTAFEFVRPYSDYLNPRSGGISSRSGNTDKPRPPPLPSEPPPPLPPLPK

IC50 [1]	IC50 ([2]; Homo sapiens, 96 h)	IC50 ([3]; Homo sapiens, A2780, 96 h)	SMILES	further results
0.56 µM	4.47 µM		CCOC(=O)N=S(C)(=O)Cc1cccc(Nc2ncc(F)c(-c3ccc(F)cc3F)n2)c1 (racemic) [Example 8, (rac)-Ethyl[(3-{[4-(2,4-difluorophenyl)-5-fluoropyrimidin-2-yl]amino}benzyl)(methyl)oxido-λ^6-sulfanylidene]carbamate]	
1.3 µM			N=S(=O)(CCN)Cc1cc(Nc2ncc(F)c(-c3ccc(F)cc3F)n2)cc(C(F)(F)F)c1 (single isomer, unassigned) [Example 26, N-[3-{[S-(2-Aminoethyl)sulfonimidoyl]methyl}-5-(trifluoromethyl)phenyl]-4-(2,4-difluorophenyl)-5-fluoropyrimidin-2-amine]	IC50 [4]: 0.278 µM
1.7 µM	1.94 µM	> 1 µM	CS(=N)(=O)Cc1cc(F)cc(Nc2ncc(F)c(-c3ccc(F)cc3F)n2)c1 (single isomer, unassigned) [Example 12, 4-(2,4-Difluorophenyl)-5-fluoro-N-{3-fluoro-5-[(S-methylsulfonimidoyl)methyl]phenyl}pyrimidin-2-amine]	
0.38 µM	1.6 µM		CS(=N)(=O)Cc1cc(Br)cc(Nc2ncc(F)c(-c3ccc(F)cc3F)n2)c1 (racemic) [Example 19, (rac)-N-{3-Bromo-5-[(S-methylsulfonimidoyl)methyl]phenyl}-4-(2,4-difluorophenyl)-5-fluoropyrimidin-2-amine]	IC50 [5]: 0.013 µM; Selectivity CDK9/CDK2 [5]: 30
0.39 µM		0.327 µM	Cc1cc(CS(C)(=O)=NC#N)cc(Nc2ncc(F)c(-c3ccc(F)cc3F)n2)c1 (single isomer, unassigned) [Example 35, [(3-{[4-(2,4-Difluorophenyl)-5-fluoro-pyrimidin-2-yl]amino}-5-methylbenzyl)-(methyl)oxido-λ^6-sulfanylidene]cyanamide]	IC50 [2]: 0.458 µM
0.73 µM			CS(=N)(=O)Cc1cc(F)cc(Nc2ncc(F)c(-c3ccc(F)cc3F)n2)c1 (single isomer, unassigned) [Example 13, 4-(2,4-Difluorophenyl)-5-fluoro-N-{3-fluoro-5-[(S-methylsulfonimidoyl)methyl]phenyl}pyrimidin-2-amine]	IC50 [2]: 1.76 µM; IC50 [3]: > 1 µM

Continued, compound first:

SMILES	IC50 [1]	IC50 ([2]; Homo sapiens, 96 h)	IC50 ([3]; Homo sapiens, A2780, 96 h)	further results
CS(=O)(Cc1cc(Br)cc(Nc2ncc(F)c(-c3ccc(F)cc3F)n2)c1)=NC#N (single isomer, unassigned) [Example 39, [(3-Bromo-5-{[4-(2,4-difluorophenyl)-5-fluoropyrimidin-2-yl]amino}benzyl)(methyl)oxido-λ^6-sulfanylidene]cyanamide]	0.43 µM	1.06 µM	0.619 µM	
Cc1cc(CS(C)(=O)=NC#N)cc(Nc2ncc(F)c(-c3ccc(F)cc3F)n2)c1 (single isomer, unassigned) [Example 36, [(3-{[4-(2,4-Difluorophenyl)-5-fluoro-pyrimidin-2-yl]amino}-5-methylbenzyl)-(methyl)oxido-λ^6-sulfanylidene]cyanamide]	0.4 µM			IC50 [2]: 1.02 µM; IC50 [3]: 0.338 µM
CS(=N)(=O)Cc1cc(F)cc(Nc2ncc(F)c(-c3ccc(F)cc3F)n2)c1 (racemic) [Example 11, (rac)-4-(2,4-Difluorophenyl)-5-fluoro-N-{3-fluoro-5-[(S-methylsulfonimidoyl)methyl]phenyl}pyrimidin-2-amine]		1.32 µM	0.9 µM	
CS(=O)(Cc1cc(F)cc(Nc2ncc(F)c(-c3ccc(F)cc3F)n2)c1)=NC#N (racemic) [Example 10, (rac)-[(3-{[4-(2,4-Difluorophenyl)-5-fluoropyrimidin-2-yl]amino}-5-fluorobenzyl)(methyl)oxido-λ^6-sulfanylidene]cyanamide]	0.57 µM	1.05 µM	0.43 µM	
CS(=N)(=O)Cc1cc(Br)cc(Nc2ncc(F)c(-c3ccc(F)cc3F)n2)c1 (single isomer, unassigned) [Example 41, N-{3-Bromo-5-[(S-methylsulfonimidoyl)methyl]phenyl}-4-(2,4-difluorophenyl)-5-fluoropyrimidin-2-amine]	0.509 µM			IC50 [5]: 0.018 µM; Selectivity CDK9/CDK2 [5]: 28
Cc1cc(CS(C)(=O)=NC#N)cc(Nc2ncc(F)c(-c3ccc(F)cc3F)n2)c1 (racemic) [Example 16, (rac)-[(3-{[4-(2,4-Difluorophenyl)-5-fluoropyrimidin-2-yl]amino}-5-methylbenzyl)(methyl)oxido-λ^6-sulfanylidene]cyanamide]	0.47 µM	0.85 µM	0.3 µM	
COc1cc(CS(C)(=N)=O)cc(Nc2ncc(F)c(-c3ccc(F)cc3F)n2)c1 (racemic) [Example 21, (rac)-4-(2,4-Difluorophenyl)-5-fluoro-N-{3-methoxy-5-[(S-methylsulfonimidoyl)methyl]phenyl}pyrimidin-2-amine]		0.78 µM		
CS(=O)(Cc1cc(Br)cc(Nc2ncc(F)c(-c3ccc(F)cc3F)n2)c1)=NC#N (single isomer, unassigned) [Example 40, [(3-Bromo-5-{[4-(2,4-difluorophenyl)-5-fluoropyrimidin-2-yl]amino}benzyl)(methyl)oxido-λ^6-sulfanylidene]cyanamide]	0.102 µM			IC50 [2]: 0.697 µM; IC50 [3]: 0.371 µM
